Patent US20250188040A1, “PHARMACEUTICAL COMPOSITIONS COMPRISING WRN HELICASE INHIBITORS” (Vividion Therapeutics, Inc., priority 2022, published 2025)
Where two headings read alike, the source gives them in different places.

Experiments:
[1] = target: hWRN(519-1227)_C-H3CV-GFP-10His (Homo sapiens, UniProt Q14191); assay: Helicase Assay for WRN Inhibition (ATP-dependent, fluorescence based)
SW480 cells = assay: Cell growth assay (CellTiter-Glo 2.0), SW480 MSS cell line; conditions: Homo sapiens, SW480, 120 h, read-out: Cell Growth Inhibition GI50 SW480
Description: The effects of compound on cellular viability were determined using the CellTiter-Glo® 2.0 Luminescent Cell Viability Assay (Promega, Madison, WI).
SW480 cells were seeded at 1,000 cells per well in Eagle's Minimum Essential Medium (EMEM) with 10% FBS. Both cell lines were seeded in a volume of 50 μL medium per well. […] The concentration range was adjusted as needed for compounds of different potencies. The cells treated with compounds were incubated for 5 days at 37° C. in 5% CO2. […] The plate was then read on a Clariostar plate reader (BMG Labtech, Cary, NC) in luminescence mode. The previously measured baseline cell viability was subtracted from the luminescence value of each well, and cell viability (% of DMSO) was plotted as a function of log compound concentration. The EC50 was then calculated for each compound using Dotmatics Software (San Diego, CA).

HCT 116 cells = assay: Cell growth assay (CellTiter-Glo 2.0), HCT 116 MSI-H cell line; conditions: Homo sapiens, HCT-116, 120 h, read-out: Cell Growth Inhibition GI50 HCT-116
WRN C727 = target: T1, WRN C727 (Homo sapiens, UniProt Q14191); assay: Target engagement, in vitro (lysate), OCI-AML2; type: binding; conditions: read-out: OCI-AML2 WRN C727 TE50 in vitro (lysate)
T1 construct: endogenous in cells; host or cells: OCI-AML2
T1 sequence (Q14191 whole entry): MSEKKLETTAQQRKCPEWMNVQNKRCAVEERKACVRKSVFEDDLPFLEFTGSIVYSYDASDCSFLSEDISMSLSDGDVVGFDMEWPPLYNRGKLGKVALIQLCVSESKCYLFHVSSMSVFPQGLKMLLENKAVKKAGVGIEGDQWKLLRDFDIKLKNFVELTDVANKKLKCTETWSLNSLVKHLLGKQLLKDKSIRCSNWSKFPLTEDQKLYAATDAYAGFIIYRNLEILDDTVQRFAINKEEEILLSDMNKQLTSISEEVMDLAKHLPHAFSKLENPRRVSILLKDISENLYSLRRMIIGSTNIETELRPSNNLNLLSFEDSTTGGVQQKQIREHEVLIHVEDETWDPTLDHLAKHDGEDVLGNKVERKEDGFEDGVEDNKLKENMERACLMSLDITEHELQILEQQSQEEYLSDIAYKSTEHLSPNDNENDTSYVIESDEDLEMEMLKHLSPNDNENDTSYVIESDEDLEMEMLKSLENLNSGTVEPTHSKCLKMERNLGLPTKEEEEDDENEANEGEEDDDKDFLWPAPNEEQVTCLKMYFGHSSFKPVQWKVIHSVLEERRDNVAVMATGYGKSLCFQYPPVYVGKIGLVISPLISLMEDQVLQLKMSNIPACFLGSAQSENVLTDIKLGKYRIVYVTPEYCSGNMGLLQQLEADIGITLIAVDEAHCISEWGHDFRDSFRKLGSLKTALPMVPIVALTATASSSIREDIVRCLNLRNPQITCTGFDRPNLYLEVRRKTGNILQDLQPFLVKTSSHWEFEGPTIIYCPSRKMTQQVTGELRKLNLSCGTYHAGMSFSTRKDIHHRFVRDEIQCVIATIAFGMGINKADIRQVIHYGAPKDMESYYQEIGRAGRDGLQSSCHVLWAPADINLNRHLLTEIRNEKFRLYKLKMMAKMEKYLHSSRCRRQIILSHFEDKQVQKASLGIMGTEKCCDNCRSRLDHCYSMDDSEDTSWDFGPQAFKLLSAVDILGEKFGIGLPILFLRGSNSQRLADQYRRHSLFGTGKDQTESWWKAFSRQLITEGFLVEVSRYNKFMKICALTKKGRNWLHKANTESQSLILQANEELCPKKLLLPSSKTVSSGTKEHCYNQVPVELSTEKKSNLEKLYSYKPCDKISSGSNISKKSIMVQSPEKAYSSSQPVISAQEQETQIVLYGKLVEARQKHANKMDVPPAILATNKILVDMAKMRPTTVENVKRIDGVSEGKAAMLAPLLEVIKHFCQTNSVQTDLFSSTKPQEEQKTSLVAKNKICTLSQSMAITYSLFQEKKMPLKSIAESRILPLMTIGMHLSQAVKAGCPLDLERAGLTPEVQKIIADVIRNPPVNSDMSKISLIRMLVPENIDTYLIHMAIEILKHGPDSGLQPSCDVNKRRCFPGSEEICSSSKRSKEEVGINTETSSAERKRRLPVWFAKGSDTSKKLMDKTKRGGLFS
Outline: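 OCI-AML2 intact cells or lysates dosed with compound, then a cysteine-reactive probe; after trypsin digestion, probe-labelled peptides were streptavidin-enriched and quantified by nano-LC parallel reaction monitoring MS. Engagement (%) relative to DMSO controls.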

[2] = WRN Helicase IC50, 30 min preincubation with ATP, 30 min reaction

Chain of hWRN(519-1227)_C-H3CV-GFP-10His (Q14191 519-1227): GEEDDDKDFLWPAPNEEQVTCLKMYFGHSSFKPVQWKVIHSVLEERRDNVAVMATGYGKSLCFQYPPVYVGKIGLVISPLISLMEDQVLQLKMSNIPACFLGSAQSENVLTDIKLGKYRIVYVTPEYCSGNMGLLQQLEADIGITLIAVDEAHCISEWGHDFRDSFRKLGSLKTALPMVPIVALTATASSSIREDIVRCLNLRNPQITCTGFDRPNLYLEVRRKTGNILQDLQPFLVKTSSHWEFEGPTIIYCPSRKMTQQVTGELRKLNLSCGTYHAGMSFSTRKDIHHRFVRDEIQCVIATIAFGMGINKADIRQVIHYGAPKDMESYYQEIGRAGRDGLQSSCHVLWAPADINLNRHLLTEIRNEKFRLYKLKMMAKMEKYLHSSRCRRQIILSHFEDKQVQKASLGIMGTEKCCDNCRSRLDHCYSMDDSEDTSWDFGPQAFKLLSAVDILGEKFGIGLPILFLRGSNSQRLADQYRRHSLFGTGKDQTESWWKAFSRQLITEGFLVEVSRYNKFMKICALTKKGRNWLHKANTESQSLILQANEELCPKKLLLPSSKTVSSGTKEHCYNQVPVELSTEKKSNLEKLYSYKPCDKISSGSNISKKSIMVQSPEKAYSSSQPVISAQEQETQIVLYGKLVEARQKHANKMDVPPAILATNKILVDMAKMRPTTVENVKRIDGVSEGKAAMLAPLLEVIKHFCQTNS

Molecule `C[C@@H]1CC[C@H](c2ncc(C(=O)N[C@@H](C)/C=C/S(C)(=O)=O)c(Oc3ccccc3)n2)C1` (racemic) [Example 215] has an IC50 [1, 2] of 2.2 µM, a GI50 (SW480 cells) of 8.2 µM and a GI50 (HCT 116 cells) of 1.4 µM. For the same molecule, the IC50 (WRN C727) was 9.62 µM.

In the case of `CS(=O)(=O)/C=C/[C@H](Cc1ccccc1)NC(=O)c1cnc(C2CC2)nc1Oc1ccccc1` (single isomer, unassigned) [Example 20], the IC50 [1, 2] is reported as 1.7 µM, the GI50 (SW480 cells) is reported as 15.4 µM and the GI50 (HCT 116 cells) is reported as 0.745 µM. The IC50 (WRN C727) was 9.36 µM.

With `CS(=O)(=O)/C=C\[C@H](Cc1ccccc1)NC(=O)c1cnc(C2CC2)nc1Oc1ccccc1` (single isomer, unassigned) [Example 21] the IC50 [1, 2] was 6.1 µM, the GI50 (SW480 cells) was 14 µM and the GI50 (HCT 116 cells) was 3.1 µM. The IC50 (WRN C727) was greater than 100 µM.

Work on `CS(=O)(=O)/C=C\C1CN(C(=O)c2cnc(C3CC3)nc2Oc2ccccc2)C1` (single isomer, unassigned) [Example 23, (Z)-(2-cyclopropyl-4-phenoxypyrimidin-5-yl)(3-(2-(methylsulfonyl)vinyl)azetidin-1-yl)methanone] yielded an IC50 [1] of 3.4 µM, a GI50 (SW480 cells) of 2.8 µM and a GI50 (HCT 116 cells) of 1.1 µM. For the same molecule, the IC50 (WRN C727) was 8.83 µM.

Work on `CS(=O)(=O)/C=C/C1CN(C(=O)c2cnc(C3CC3)nc2Oc2ccccc2)C1` (single isomer, unassigned) [Example 24, (E)-(2-cyclopropyl-4-phenoxypyrimidin-5-yl)(3-(2-(methylsulfonyl)vinyl)azetidin-1-yl)methanone] yielded an IC50 [1] of 20 µM, a GI50 (SW480 cells) greater than 10 µM and a GI50 (HCT 116 cells) of 7.7 µM. It also gave an IC50 (WRN C727) greater than 100 µM.

In the case of `C[C@@H](/C=C/S(C)(=O)=O)NC(=O)c1cnc([C@H]2C[C@@H](C)C2)nc1Oc1ccccc1` (single isomer, unassigned) [Example 46], the IC50 [1, 2] is reported as 0.287 µM, the GI50 (SW480 cells) is reported as greater than 11.9 µM and the GI50 (HCT 116 cells) is reported as 0.124 µM. The IC50 (WRN C727) was 0.99 µM.

With `C[C@@H](/C=C/S(C)(=O)=O)NC(=O)c1cnc([C@H]2C[C@H](C)C2)nc1Oc1ccccc1` (single isomer, unassigned) [Example 47] the IC50 [1, 2] was 0.77 µM, the GI50 (SW480 cells) was greater than 12.7 µM and the GI50 (HCT 116 cells) was 0.291 µM. It also gave an IC50 (WRN C727) of 0.99 µM.

Work on `CS(=O)(=O)/C=C/[C@@H](NC(=O)c1cnc([C@H]2C[C@@H](C)C2)nc1Oc1ccccc1)C1CC1` (single isomer, unassigned) [Example 48] yielded an IC50 [1, 2] of 0.062 µM, a GI50 (SW480 cells) of 5.97 µM and a GI50 (HCT 116 cells) of 0.0365 µM. It also gave an IC50 (WRN C727) of 0.035 µM.

`CS(=O)(=O)/C=C/[C@@H](NC(=O)c1cnc([C@H]2C[C@H](C)C2)nc1Oc1ccccc1)C1CC1` (single isomer, unassigned) [Example 49] showed an IC50 [1, 2] of 0.092 µM, a GI50 (SW480 cells) of 5.19 µM and a GI50 (HCT 116 cells) of 0.0602 µM. It also gave an IC50 (WRN C727) of 0.22 µM.

Work on `CS(=O)(=O)C=C1CN(C(=O)c2cnc([C@H]3C[C@@H](C)C3)nc2Oc2ccccc2)C1` (single isomer, unassigned) [Example 50, (2-((1s,3s)-3-methylcyclobutyl)-4-phenoxypyrimidin-5-yl)(3-((methylsulfonyl)methylene)azetidin-1-yl)methanone] yielded an IC50 [1] of 0.22 µM, a GI50 (SW480 cells) of 7.5 µM and a GI50 (HCT 116 cells) of 0.0947 µM. For the same molecule, the IC50 (WRN C727) was 0.28 µM.

Work on `CS(=O)(=O)C=C1CN(C(=O)c2cnc([C@H]3C[C@H](C)C3)nc2Oc2ccccc2)C1` (single isomer, unassigned) [Example 51, (2-((1r,3r)-3-methylcyclobutyl)-4-phenoxypyrimidin-5-yl)(3-((methylsulfonyl)methylene)azetidin-1-yl)methanone] yielded an IC50 [1] of 0.45 µM, a GI50 (SW480 cells) of 8.52 µM and a GI50 (HCT 116 cells) of 0.184 µM. For the same molecule, the IC50 (WRN C727) was 3.3 µM.

Molecule `CC(C)(C)c1ncc(C(=O)N[C@H](/C=C/S(C)(=O)=O)Cc2ccccc2)c(Oc2ccccc2)n1` (single isomer, unassigned) [Example 60] has an IC50 [1, 2] of 0.41 µM, a GI50 (SW480 cells) of 13 µM and a GI50 (HCT 116 cells) of 0.2 µM. The IC50 (WRN C727) was 2.87 µM.

`CC(C)(C)c1ncc(C(=O)N[C@H](/C=C\S(C)(=O)=O)Cc2ccccc2)c(Oc2ccccc2)n1` (single isomer, unassigned) [Example 61] showed an IC50 [1, 2] of 3.5 µM, a GI50 (SW480 cells) of 7.5 µM and a GI50 (HCT 116 cells) of 1.3 µM. For the same molecule, the IC50 (WRN C727) was greater than 100 µM.

For `CC(/C=C/S(C)(=O)=O)NC(=O)c1cc(F)c(C2=CCCC2)nc1Oc1ccccc1` (stereo in doubt) [Example 206, (R,E)-6-(cyclopent-1-en-1-yl)-5-fluoro-N-(4-(methylsulfonyl)but-3-en-2-yl)-2-phenoxynicotinamide], the IC50 [1] was 11 µM, the GI50 (SW480 cells) was 8.6 µM and the GI50 (HCT 116 cells) was 5.7 µM. It also gave an IC50 (WRN C727) of 20 µM.

For `CC(C)[C@@H](/C=C/S(C)(=O)=O)NC(=O)c1cnc(C2CCCC2)nc1Oc1ccccc1` [Example 7, (S,E)-2-cyclopentyl-N-(4-methyl-1-(methylsulfonyl)pent-1-en-3-yl)-4-phenoxypyrimidine-5-carboxamide], the IC50 [1, 2] was 2.7 µM, the GI50 (SW480 cells) was greater than 19.5 µM and the GI50 (HCT 116 cells) was 1.16 µM. It also gave an IC50 (WRN C727) of 14 µM.

Work on `CS(=O)(=O)/C=C/[C@@H](NC(=O)c1cnc(C2CCCC2)nc1Oc1ccccc1)C1CC1` [Example 8, (S,E)-2-cyclopentyl-N-(1-cyclopropyl-3-(methylsulfonyl)allyl)-4-phenoxypyrimidine-5-carboxamide] yielded an IC50 [1, 2] of 0.0758 µM, a GI50 (SW480 cells) of 6.72 µM and a GI50 (HCT 116 cells) of 0.044 µM. For the same molecule, the IC50 (WRN C727) was 0.195 µM.

For `CS(=O)(=O)/C=C/[C@@H](NC(=O)c1cnc(C2CCCC2)nc1Oc1ccccc1)C1CCC1` [Example 9, (S,E)-N-(1-cyclobutyl-3-(methylsulfonyl)allyl)-2-cyclopentyl-4-phenoxypyrimidine-5-carboxamide], the IC50 [1, 2] was 0.16 µM, the GI50 (SW480 cells) was 15 µM and the GI50 (HCT 116 cells) was 0.043 µM. The IC50 (WRN C727) was 0.31 µM.

Work on `COC[C@@H](/C=C/S(C)(=O)=O)NC(=O)c1cnc(C2CCCC2)nc1Oc1ccccc1` [Example 10, (R,E)-2-cyclopentyl-N-(1-methoxy-4-(methylsulfonyl)but-3-en-2-yl)-4-phenoxypyrimidine-5-carboxamide] yielded an IC50 [1, 2] of 0.13 µM, a GI50 (SW480 cells) of 27.4 µM and a GI50 (HCT 116 cells) of 0.0724 µM. For the same molecule, the IC50 (WRN C727) was 0.24 µM.

In the case of `CC(C)c1ncc(C(=O)N[C@H](/C=C/S(C)(=O)=O)C2CC2)c(Oc2ccccc2)n1` [Example 16, (S,E)-N-(1-cyclopropyl-3-(methylsulfonyl)allyl)-2-isopropyl-4-phenoxypyrimidine-5-carboxamide], the IC50 [1, 2] is reported as 0.18 µM, the GI50 (SW480 cells) is reported as 24.3 µM and the GI50 (HCT 116 cells) is reported as 0.0849 µM. It also gave an IC50 (WRN C727) of 0.65 µM.

Work on `C[C@@H](/C=C/S(=O)(=O)C1CC1)NC(=O)c1cnc(C2CC2)nc1Oc1ccccc1` [Example 25, (S,E)-2-cyclopropyl-N-(4-(cyclopropylsulfonyl)but-3-en-2-yl)-4-phenoxypyrimidine-5-carboxamide] yielded an IC50 [1, 2] of 12 µM, a GI50 (SW480 cells) greater than 10 µM and a GI50 (HCT 116 cells) of 5 µM. It also gave an IC50 (WRN C727) greater than 100 µM.

In the case of `CS(=O)(=O)/C=C1/CCN(C(=O)c2cnc(C3CC3)nc2Oc2ccccc2)C1` [Example 26, (2-cyclopropyl-4-phenoxy-pyrimidin-5-yl)-[(3Z)-3-(methylsulfonylmethylene)pyrrolidin-1-yl]methanone], the IC50 [1] is reported as 103 µM, the GI50 (SW480 cells) is reported as 54 µM and the GI50 (HCT 116 cells) is reported as 18 µM. For the same molecule, the IC50 (WRN C727) was greater than 100 µM.

`CS(=O)(=O)/C=C/[C@@H](NC(=O)c1cc(F)c(C(F)(F)C2CC2)nc1Oc1ccccc1)C1CC1` [Example 236, (S,E)-N-(1-cyclopropyl-3-(methylsulfonyl)allyl)-6-(cyclopropyldifluoromethyl)-5-fluoro-2-phenoxynicotinamide] was tested, and the IC50 [1, 2] was 0.042 µM, the GI50 (SW480 cells) was 4.5 µM and the GI50 (HCT 116 cells) was 0.012 µM.

Work on `CSc1ncc(C(=O)NC/C=C/S(C)(=O)=O)c(Oc2ccccc2)n1` [Example 241, (E)-N-(3-(methylsulfonyl)allyl)-2-(methylthio)-4-phenoxypyrimidine-5-carboxamide] yielded an IC50 [1, 2] of 12 µM, a GI50 (SW480 cells) greater than 10 µM and a GI50 (HCT 116 cells) of 8.4 µM.

With `C[C@@H](/C=C/S(C)(=O)=O)NC(=O)c1cc2ccccc2nc1Oc1ccccc1` [Example 242, (S,E)-N-(4-(methylsulfonyl)but-3-en-2-yl)-2-phenoxyquinoline-3-carboxamide] the IC50 [1, 2] was 9.8 µM, the GI50 (SW480 cells) was greater than 10 µM and the GI50 (HCT 116 cells) was 2.8 µM.

`CS(=O)(=O)/C=C/[C@@H](NC(=O)c1cnc(OC2CC2)nc1Oc1ccccc1)C1CC1` [Example 245, (S,E)-2-cyclopropoxy-N-(1-cyclopropyl-3-(methylsulfonyl)allyl)-4-phenoxypyrimidine-5-carboxamide] gave an IC50 [1, 2] of 1.1 µM, a GI50 (SW480 cells) of 36 µM and a GI50 (HCT 116 cells) of 0.14 µM.

`CS(=O)(=O)/C=C/[C@@H](NC(=O)c1cnc(OCC(F)(F)F)nc1Oc1ccccc1)C1CC1` [Example 246, (S,E)-N-(1-cyclopropyl-3-(methylsulfonyl)allyl)-4-phenoxy-2-(2,2,2-trifluoroethoxy)pyrimidine-5-carboxamide] was tested, and the IC50 [1, 2] was 8 µM, the GI50 (SW480 cells) was 16 µM and the GI50 (HCT 116 cells) was 0.64 µM.

In the case of `Cc1cc(C(=O)N[C@@H](C)/C=C/S(C)(=O)=O)c(Oc2ccccc2)nc1C1CCCC1` [Example 262, (S,E)-6-cyclopentyl-5-methyl-N-(4-(methylsulfonyl)but-3-en-2-yl)-2-phenoxynicotinamide], the IC50 [1, 2] is reported as 6.5 µM, the GI50 (SW480 cells) is reported as 3 µM and the GI50 (HCT 116 cells) is reported as 1.7 µM.

In the case of `C[C@@H](C#CC(=O)N(C)C)NC(=O)c1cnc(C(C)(F)F)nc1Oc1ccccc1` [Example 263, (S)-2-(1,1-difluoroethyl)-N-(5-(dimethylamino)-5-oxopent-3-yn-2-yl)-4-phenoxypyrimidine-5-carboxamide], the IC50 [1, 2] is reported as 5.5 µM, the GI50 (SW480 cells) is reported as 2.3 µM and the GI50 (HCT 116 cells) is reported as 1.4 µM.

With `C=C(CNC(=O)c1cnc(C2CC2)nc1Oc1ccccc1)S(C)(=O)=O` [Example 287, 2-cyclopropyl-N-(2-(methylsulfonyl)allyl)-4-phenoxypyrimidine-5-carboxamide] the IC50 [1, 2] was 8 µM, the GI50 (SW480 cells) was 3.9 µM and the GI50 (HCT 116 cells) was 3.5 µM.
